This is an account of results in ChEMBL document CHEMBL1134114, “Novel sulfonate derivatives: potent antimitotic agents” (Bioorg Med Chem Lett, 2001).

Assay [1] relates to HCT-15. Description: Antiproliferative activity against human colon carcinoma HCT-15 cell line(MDR(+)).
Assay [2] has as its system NCI-H460. Description: Antiproliferative activity against human lung carcinoma NCI-H460 cell line (MDR(-)).
Assay [3] concerns HCT-15. Description: Antiproliferative activity against human colon carcinoma HCT-15 cell line(MDR(+)); Inactive at >10 uM.
Assay [4] has as its system NCI-H460. In words: Antiproliferative activity against human lung carcinoma NCI-H460 cell line (MDR(-)); Inactive at >10 uM.
Another assay deals with Tubulin alpha chain (Sus scrofa, UniProt P02550). Description: Concentration inhibiting tubulin polymerization. The assay is classed as functional.
Chain of Tubulin alpha chain (P02550 whole entry, looked up): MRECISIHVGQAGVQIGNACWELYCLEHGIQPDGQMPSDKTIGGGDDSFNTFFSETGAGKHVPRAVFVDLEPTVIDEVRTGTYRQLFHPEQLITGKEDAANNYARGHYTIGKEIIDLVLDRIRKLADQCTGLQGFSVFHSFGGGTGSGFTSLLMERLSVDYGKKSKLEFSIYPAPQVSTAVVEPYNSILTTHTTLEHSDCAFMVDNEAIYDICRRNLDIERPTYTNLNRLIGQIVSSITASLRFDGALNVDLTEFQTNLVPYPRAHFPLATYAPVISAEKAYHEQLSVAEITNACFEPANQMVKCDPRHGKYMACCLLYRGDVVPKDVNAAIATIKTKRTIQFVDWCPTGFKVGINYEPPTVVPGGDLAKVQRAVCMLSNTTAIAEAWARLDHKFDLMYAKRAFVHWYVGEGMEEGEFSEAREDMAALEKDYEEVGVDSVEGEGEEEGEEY

For the molecule `COc1ccc(S(=O)(=O)Oc2ccccc2NC(=O)c2ccnc3ccccc23)cc1`, the concentration for half-maximal inhibition (IC50) with HCT-15 [1] and with NCI-H460 [2] was > 10000 nM in each case.

Take `COc1ccc(S(=O)(=O)Oc2ccccc2NC(=O)c2ccc3ncccc3c2)cc1`: the IC50 with HCT-15 [1] and with NCI-H460 [2] was > 10000 nM each time.

Consider `COc1ccc(S(=O)(=O)Oc2ccccc2NC(=O)c2cccnc2)cc1`, for which the figures for the IC50 in the assay on HCT-15 [1] and in the assay on NCI-H460 [2] were > 3000 nM and > 6000 nM, respectively.

With `COc1ccc(S(=O)(=O)Oc2ccccc2C(=O)Nc2ccncc2)cc1`, the IC50 entry in the assay on HCT-15 [3] and with NCI-H460 [4] was “Not Active” throughout.

`COc1ccc(S(=O)(=O)Oc2ccccc2NC(=O)c2ccc(N(C)C)cc2)cc1`: the IC50 with HCT-15 [1] and in the assay with NCI-H460 [2] was > 10000 nM in each case.

On to `COc1ccc(S(=O)(=O)Oc2ccccc2C(=O)Nc2ccccc2C)cc1`, for which the IC50 entry in the assay with HCT-15 [3] and in the assay with NCI-H460 [4] was “Not Active” each time.

As for `COc1ccc(S(=O)(=O)Nc2cccnc2Nc2ccc(O)cc2)cc1` [ABT-751], the results for the concentration for half-maximal inhibition (IC50) with HCT-15 [1], with NCI-H460 [2] and against Tubulin alpha chain were 340 nM, 350 nM and 3100 nM, respectively.

Turning to `COc1ccc(S(=O)(=O)Oc2ccccc2NC(=O)c2ccco2)cc1`, the IC50 (usually the point on the concentration scale where inhibition reaches its midpoint) worked out at 19 nM in the assay on HCT-15 [1] and 24 nM with NCI-H460 [2].

As to `COc1ccc(S(=O)(=O)Oc2cccnc2NC(=O)c2ccco2)cc1`, the concentration for half-maximal inhibition (IC50) entry with HCT-15 [3] and with NCI-H460 [4] was “Not Active” each time.

For the molecule `COc1ccc(S(=O)(=O)Oc2ccccc2/C=C/c2ccncc2)cc1`, the values for the concentration for half-maximal inhibition (IC50) with HCT-15 [1], in the assay with NCI-H460 [2] and against Tubulin alpha chain were 56 nM, 130 nM and 3460 nM, respectively.

Turning to `COc1ccc(S(=O)(=O)Oc2ccccc2NC(=O)c2ccccn2)cc1`, the figures for the IC50 with HCT-15 [1], with NCI-H460 [2] and against Tubulin alpha chain were 110 nM, 300 nM and 4060 nM, respectively.

As to `COc1ccc(S(=O)(=O)Oc2ccccc2NC(=O)c2cnccn2)cc1`, the 50% inhibitory concentration (IC50) worked out at 68 nM in the assay on HCT-15 [1], 250 nM in the assay with NCI-H460 [2] and 5200 nM against Tubulin alpha chain.

For `COc1ccc(S(=O)(=O)Oc2ccccc2NC(=O)Cc2ccncc2)cc1`, the IC50 in the assay on HCT-15 [1] came to 600 nM; with NCI-H460 [2] it was 720 nM.

Regarding `COc1ccc(S(=O)(=O)Oc2ccccc2NC(=O)c2ccc(F)cc2)cc1`, the concentration for half-maximal inhibition (IC50) in the assay on HCT-15 [1] was 89 nM; in the assay on NCI-H460 [2], 550 nM.

On to `COc1ccc(S(=O)(=O)Oc2ccccc2NC(=O)Nc2ccccc2)cc1`, for which the IC50 with HCT-15 [1] and with NCI-H460 [2] was > 10000 nM in each case.

Take `COc1ccc(S(=O)(=O)Oc2ccccc2NC(=O)Oc2ccccc2)cc1`: the IC50 in the assay on HCT-15 [1] and in the assay with NCI-H460 [2] was > 10000 nM each time.

On to `COc1ccc(S(=O)(=O)Oc2ccccc2C(=O)Nc2ccccc2)cc1`, for which the 50% inhibitory concentration (IC50) result with HCT-15 [3] and with NCI-H460 [4] was “Not Active” each time.

Regarding `COc1ccc(S(=O)(=O)Oc2cccnc2NC(=O)c2ccncc2)cc1`, the concentration for half-maximal inhibition (IC50) result with HCT-15 [3] and with NCI-H460 [4] was “Not Active” each time.

In the case of `COc1ccc(S(=O)(=O)Oc2ccccc2C(=O)Nc2ccc(F)cc2)cc1`, the IC50 result with HCT-15 [3] and in the assay with NCI-H460 [4] was “Not Active” throughout.

`COc1ccc(S(=O)(=O)Oc2ccccc2NC(=O)c2ccccc2)cc1`: the IC50 in the assay with HCT-15 [1] is 310 nM; in the assay on NCI-H460 [2], 410 nM.

In the case of `COc1ccc(S(=O)(=O)Oc2ccccc2NC(=O)c2ccncc2)cc1`, the IC50 is 89 nM in the assay with HCT-15 [1], 55 nM in the assay on NCI-H460 [2] and 3730 nM at Tubulin alpha chain.
